Key:
Staphylococcus [1] = experiment: Inhibitory zone of compound at 30 ug against Staphylococcus innsbruck was determined; assay type: functional
Enterococcus = experiment: Inhibitory zone of compound at 30 ug against Enterococcus was determined; assay type: functional
Staphylococcus [2] = experiment: Inhibitory zone of compound at 30 ug against Staphylococcus 25768 was determined; assay type: functional
Pseudomonas aeruginosa = experiment: Inhibitory zone of compound at 30 ug against Pseudomonas aeruginosa was determined; assay type: functional
Staphylococcus aureus = experiment: Inhibitory zone of compound at 30 ug against Staphylococcus aureus 1104 was determined; assay type: functional
[3] = Compound was evaluated for half life of hydrolysis in phosphate buffer at pH 7.4 and 37 degree C; assay type: ADME
Escherichia coli [4] = experiment: Inhibitory zone of compound at 30 ug against Escherichia coli 1103 was determined; assay type: functional
Enterobacter cloacae = experiment: Inhibitory zone of compound at 30 ug against Enterobacter cloacae was determined; assay type: functional
Escherichia coli [5] = experiment: Inhibitory zone of compound at 30 ug against Escherichia coli TEM was determined; assay type: functional
[6] = Compound was evaluated for relative hydrolysis rate; assay type: ADME
Beta-lactamase = Beta-lactamase (Enterobacter cloacae, UniProt P05364); experiment: Compound was evaluated for beta-lactamase inhibition activity of Enterobacter cloacae after 15 min of pre-incubation with the enzyme at 37 degree C
Beta-lactamase TEM [7] = target: T1, Beta-lactamase TEM (Escherichia coli, UniProt P62593); experiment: (§1) Compound was evaluated for beta-lactamase inhibition activity of Escherichia coli after 15 min of pre-incubation with the enzyme at 37 degree C
Beta-lactamase TEM [8] = target: T1, Beta-lactamase TEM; experiment: as §1; design: species or system Escherichia cloacae

Sequence of Beta-lactamase (P05364 whole entry): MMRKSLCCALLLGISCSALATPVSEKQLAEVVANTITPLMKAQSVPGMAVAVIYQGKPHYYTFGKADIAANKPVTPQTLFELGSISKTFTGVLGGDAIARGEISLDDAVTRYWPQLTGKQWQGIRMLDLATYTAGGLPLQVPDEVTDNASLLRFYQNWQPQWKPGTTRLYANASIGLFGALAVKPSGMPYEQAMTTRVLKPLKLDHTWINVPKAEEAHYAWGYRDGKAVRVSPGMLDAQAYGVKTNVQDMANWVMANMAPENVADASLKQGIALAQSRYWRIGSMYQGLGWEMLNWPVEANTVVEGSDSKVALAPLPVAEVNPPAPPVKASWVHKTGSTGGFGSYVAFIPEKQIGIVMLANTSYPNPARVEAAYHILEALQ
T1 sequence (P62593 whole entry): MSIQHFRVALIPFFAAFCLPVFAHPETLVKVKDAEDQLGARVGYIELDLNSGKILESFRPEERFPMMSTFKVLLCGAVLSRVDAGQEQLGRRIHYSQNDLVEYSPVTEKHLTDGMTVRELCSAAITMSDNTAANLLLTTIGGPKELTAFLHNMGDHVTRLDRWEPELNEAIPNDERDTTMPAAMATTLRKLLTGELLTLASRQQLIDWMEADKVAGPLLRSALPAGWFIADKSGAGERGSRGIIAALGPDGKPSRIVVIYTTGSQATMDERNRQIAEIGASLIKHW

SMILES | Inhibition zone (Staphylococcus [1]) | Inhibition zone (Enterococcus) | Inhibition zone (Staphylococcus [2]) | Inhibition zone (Pseudomonas aeruginosa) | Inhibition zone (Staphylococcus aureus) | half-life [3] | Inhibition zone (Escherichia coli [4]) | Inhibition zone (Enterobacter cloacae) | Inhibition zone (Escherichia coli [5]) | Krel [6] | IC50 (Beta-lactamase) | IC50 (Beta-lactamase TEM [7]) | IC50 (Beta-lactamase TEM [8])
CC(C)(C)C1=C(C(=O)[O-])N2C(=O)C[C@H]2[S+]1[O-].[K+] (some centres undefined) | 0 mm | 0 mm | 8 mm | 0 mm | 36 mm | 5.5 h | 10 mm | 0 mm | 0 mm | 39 |  |  | 
C[C@@H](O)[C@H]1C(=O)N2C(C(=O)[O-])=C(C(C)(C)C)[S+]([O-])[C@H]12.[K+] (some centres undefined) | 0 mm | 0 mm | 24 mm | 0 mm | 30 mm | 6.5 h | 20 mm | 7 mm | 13 mm | 33 | 0.3 µM | 90 µM | 
C[C@@H](O)[C@H]1C(=O)N2C(C(=O)[O-])=C(C(C)(C)C)S(=O)(=O)[C@H]12.[K+] | 0 mm | 0 mm | 0 mm | 0 mm | 0 mm | 18 h | 0 mm | 0 mm | 0 mm | 720 | 0.004 µM | 10 µM | 
C[C@@H](O)[C@H]1C(=O)N2C(C(=O)[O-])=C(C(C)(C)C)S[C@H]12.[K+] | 0 mm | 11 mm | 31 mm | 0 mm | 36 mm | 16 h | 18 mm | 10 mm | 9 mm | 0.6 | 0.3 µM |  | 50 µM
CC(C)(C)C1=C(C(=O)[O-])N2C(=O)C[C@H]2S1.[K+] | 0 mm | 0 mm | 0 mm | 0 mm | 40 mm | 9 h | 11 mm | 0 mm | 0 mm | 1 |  |  | 
N[C@@H](C(=O)N[C@@H]1C(=O)N2C(C(=O)O)=C(Cl)CS[C@H]12)c1ccccc1.O [CEFACLOR] | 12 mm | 15 mm | 13 mm | 0 mm | 32 mm |  | 25 mm | 7 mm | 15 mm |  |  |  | 

Reference: ChEMBL document CHEMBL1130516, “Synthesis and biological activity of novel penem sulfoxides and sulfones” (Bioorg Med Chem Lett, 1997)
